SMILES strings stand for the structures.

This assay deals with C-terminal-binding protein 2 (Homo sapiens, UniProt P56545). The assay is described as follows: CtBP2 ITC. The following applies: pH 8.5. An excerpt: Five mM MTOB was utilized for competitive displacement assays.

In general, Kd refers to the equilibrium constant for the complex coming apart. Molecule `CSCCC(=O)C(=O)O` [4-Methylthio 2-oxobutyric acid (MTOB)] returned a dissociation constant Kd of 2960 µM.
